Measurements from PubChem BioAssay (NCI).
Values joined by “and” are separate entries in the source; they are usually repeats but may differ in a detail not shown here. Identical values can stand only once.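 Results reflect a 48-hour exposure of cells in 96-well plates to compound at five concentrations. GI50 marks 50% less growth. TGI is the concentration that stops growth completely.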

What was measured:
Test in all cases: NCI tumour cell line growth inhibition, 48 h
M14 melanoma = tested on: M14 melanoma
OVCAR-4 ovarian = tested on: OVCAR-4 ovarian
EKVX NSCLC = tested on: EKVX NSCLC
SK-OV-3 ovarian = tested on: SK-OV-3 ovarian
BT-549 breast = tested on: BT-549 breast
786-0 renal = tested on: 786-0 renal
HCT-116 colon = tested on: HCT-116 colon
SW-620 colon = tested on: SW-620 colon
U251 CNS = tested on: U251 CNS
NCI-H522 lung = tested on: NCI-H522 lung

SMILES	GI50 (M14 melanoma)	TGI (M14 melanoma) [µM]	GI50 (OVCAR-4 ovarian)	TGI (OVCAR-4 ovarian) [µM]	GI50 (EKVX NSCLC) [µM]	TGI (EKVX NSCLC) [µM]	GI50 (SK-OV-3 ovarian) [nM]	TGI (SK-OV-3 ovarian) [µM]	GI50 (BT-549 breast) [µM]	TGI (BT-549 breast) [µM]	GI50 (786-0 renal) [µM]	TGI (786-0 renal) [µM]	GI50 (HCT-116 colon) [µM]	TGI (HCT-116 colon) [µM]	GI50 (SW-620 colon) [µM]	TGI (SW-620 colon) [µM]	GI50 (U251 CNS) [µM]	TGI (U251 CNS) [µM]	GI50 (NCI-H522 lung) [nM]	TGI (NCI-H522 lung)
COc1cc(-c2nc(SCC(=O)Nc3ccc(C(C)=O)cc3)[nH]c(=O)c2C#N)cc(OC)c1OC	37.4 µM	> 100	82.9 µM	> 100	> 100	> 100	38600	> 100	32	99.7	41.7	> 100	42.1	> 100	46.7	> 100	55.6	> 100	–	–
Cc1ccc(S(=O)(=O)NC(CCC(=O)Nc2ccccc2)C(=O)Nc2ccccc2)cc1 (stereo unspecified)	0.404 µM	3.62	–	–	0.401	2.3	470	2.39	–	–	0.491	2.04	0.273	1.31	0.719	2.93	0.326	1.49	276	1.14 µM
CN(/N=C/c1ccnc2ccccc12)c1ccc([N+](=O)[O-])cc1[N+](=O)[O-]	–	> 100	–	> 100	–	> 100	–	> 100	–	–	–	74.6	–	–	–	> 100	–	> 100	–	> 100 µM
Oc1ccc(Br)cc1/C=N/NC(=S)NC12CC3CC(CC(C3)C1)C2	1.86 µM	5.84	1.25 µM	4.09	–	–	3540	11.9	4.36	15.7	2.32	5.05	1.57	4.57	1.74	3.47	1.32	2.71	4780	16.1 µM
CCc1ccc(/C(C)=N/NC(N)=S)cc1	–	> 100	–	> 100	–	> 100	–	> 100	–	–	–	> 100	–	> 100	–	–	–	> 100	–	–
O=C(CCCNC(=O)OCc1ccccc1)OCc1ccc2c(c1)C(=O)c1ccccc1C2=O	–	> 100	–	> 100	–	> 100	–	79	–	–	–	> 56.2	–	> 100	–	> 100	–	> 100	–	> 100 µM
COc1ccc(OC)c(-c2cc(-c3ccccc3)nn2-c2ccc(S(N)(=O)=O)cc2)c1	5.38 µM	16.6	–	–	18.1	39.1	–	–	17.7	38.9	11.9	24.6	–	–	12.7	33.4	–	–	8040	30 µM
CC(F)(F)c1cc(F)ccc1-c1sc2cc(O)ccc2c1Oc1ccc(/C=C/C(=O)O)cc1	4.96 µM	25	12.1 µM	33.2	10.6	39.6	–	–	6.46	27	10.2	31.2	8.48	22.1	8.56	24.9	6.45	23	6230	29 µM
O=C(N=Nc1c(O)[nH]c2c(Cl)cc(Cl)cc12)c1ccncc1	–	> 100	–	57.2	–	> 100	–	69.8	–	> 100	–	36.4	–	39.2	–	> 100	–	41.6	–	–
CCOC(=O)CNC(=O)CCCn1c(=O)c2c3ccccc3n(C)c2n2nnc(-c3ccccc3)c12	18.7 µM	> 50	> 50 µM	> 50	20.5	> 50	6700	44	–	–	5.13	17.4	9.04	27.3	> 50	> 50	4.14	14.6	6490	19.9 µM
N#CCC(=O)N/N=C1/C(=O)NC(=O)C(=O)C1c1nc2ccccc2s1 (stereo unspecified)	–	> 100	–	> 100	–	> 100	–	> 100	–	–	–	> 100	–	> 100	–	> 100	–	> 100	–	> 100 µM
O=C(CCC(=O)N/N=C/c1ccccc1O)N/N=C/c1ccccc1O	–	–	–	> 100	–	56.4	–	37.2	–	–	–	> 100	–	> 100	–	> 100	–	> 100	–	> 100 µM
CN(C)c1nc(N(C)C)n2nc(-c3ccccc3[N+](=O)[O-])nc2n1	–	> 100	–	> 100	–	> 100	–	> 100	–	–	–	> 100	–	89.2	–	24.2	–	> 100	–	> 100 µM
COc1ccccc1CNC(=O)C1c2ccccc2C(=O)N(CC(C)C)C1c1cccs1 (stereo unspecified)	19.1 µM	52.7	26.2 µM	> 100	–	–	36900	> 100	23	64.4	20.3	51.2	15.3	77.6	26.4	> 100	23.9	> 100	–	–
CCOC(=O)c1cc2cc(NC(=O)c3cc4cc([N+](=O)[O-])ccc4n3C)ccc2n1C	34.7 µM	> 100	–	–	20	> 100	–	–	11.6	35.3	17.6	31.9	14.6	30.3	93.5	> 100	14.1	30.9	> 100000	> 100 µM
COc1ccc(CCNCc2cccc(OC)c2OC)cc1OC	–	> 100	–	> 100	–	> 100	–	> 100	–	–	–	> 100	–	–	–	> 100	–	–	–	> 100 µM
O=C1/C(=C/c2ccc([N+](=O)[O-])s2)Oc2ccccc21	1.17 µM	3.57	0.538 µM	2.8	–	–	2130	5.19	0.745	1.98	2.42	6.29	0.267	0.791	0.257	0.725	0.561	1.82	189	0.382 µM
C[C@H]1COC2(c3ccccc3)CCC(=O)N12 (stereo partly specified)	–	–	–	> 100	–	> 100	–	–	–	–	–	> 100	–	> 100	–	> 100	–	> 100	–	–
O=C1OC(c2ccccc2)=N/C1=C\c1c(O)cc(O)cc1O	–	> 100	–	> 100	–	> 100	–	> 100	–	–	–	> 100	–	> 100	–	> 100	–	> 100	–	> 100 µM

SMILES	GI50 (M14 melanoma)	TGI (M14 melanoma) [µM]	GI50 (OVCAR-4 ovarian)	TGI (OVCAR-4 ovarian) [µM]	GI50 (EKVX NSCLC) [µM]	TGI (EKVX NSCLC) [µM]	GI50 (SK-OV-3 ovarian) [nM]	TGI (SK-OV-3 ovarian) [µM]	GI50 (BT-549 breast) [µM]	TGI (BT-549 breast) [µM]	GI50 (786-0 renal) [µM]	TGI (786-0 renal) [µM]	GI50 (HCT-116 colon) [µM]	TGI (HCT-116 colon) [µM]	GI50 (SW-620 colon) [µM]	TGI (SW-620 colon) [µM]	GI50 (U251 CNS) [µM]	TGI (U251 CNS) [µM]	GI50 (NCI-H522 lung) [nM]	TGI (NCI-H522 lung)
Cc1[nH]nc2c1N=C(c1ccccc1F)c1cc(C#N)ccc1N2	–	–	3.02 µM	8.01	–	–	889	> 17	2.65	12.1	0.801	7.27	0.143	6.91	–	–	0.215	4.64	3720	11.1 µM
OCC(O)COc1c(Cl)ccc(Cl)c1Cl (stereo unspecified)	–	> 100	–	> 100	–	> 100	–	> 100	–	–	–	> 100	–	> 100	–	> 100	–	> 100	–	> 100 µM
O=C(CCc1ccccc1)On1nnc2ccccc2c1=O	–	> 100	–	> 100	–	> 100	–	> 100	–	–	–	> 100	–	> 100	–	> 100	–	> 100	–	> 100 µM
COc1ccc2[nH]c(-c3cccc(N(C)C)c3)cc(=O)c2c1	0.325 µM and 0.552 µM	> 100	–	> 100	1.17	30.7	573	59.2	–	–	0.539	> 100	0.56	–	0.303	> 100	0.463	–	407	0.526 µM and 2.56 µM
CC(=O)OCC(OC(C)=O)C(OC(C)=O)C(OC(C)=O)C(=O)CNn1c(-c2ccccc2)nc2ccc(Br)cc2c1=O (stereo unspecified)	–	> 100	–	> 100	–	> 100	–	> 100	–	–	–	> 100	–	> 100	–	> 100	–	> 100	–	> 100 µM
CC(C)CC(CNC(Cc1ccc(Cl)cc1)C(N)=O)NC(=O)C(Cc1cnc[nH]1)NC(=O)CNC(=O)C(NC(=O)C(C)NC(=O)C(Cc1c[nH]c2ccccc12)NC(=O)C(CCC(=O)O)NC(=O)C(N)Cc1ccccc1)C(C)C (stereo unspecified)	–	–	–	> 133	–	> 133	–	> 133	–	–	–	> 133	–	> 133	–	> 133	–	> 133	–	–
Cc1[nH]c(=O)nc(CC(O)(c2ccccc2)c2ccccc2)c1-c1ccccc1	–	> 100	–	> 100	–	> 100	–	> 100	–	–	–	> 100	–	> 100	–	> 100	–	> 100	–	> 100 µM
Fc1ccc(F)c(C2SCc3nc4ccccc4n32)c1 (stereo unspecified)	–	> 100	–	> 100	–	> 100	–	> 100	–	–	–	> 100	–	> 100	–	> 100	–	> 100	–	> 100 µM
CCc1ccccc1-n1c2nc(=O)n(C)c(=O)c-2nc2ccccc21	–	20.8	–	18.2	–	24.6	–	> 100	–	–	–	30.5	–	25.8	–	27.3	–	32.8	–	27.3 µM
CCOC(=O)N1C/C(=C/c2ccc(OC)cc2)C(=O)/C(=C/c2ccc(OC)cc2)C1	2.11 µM	5.2	2.77 µM	> 31	–	–	3630	16.6	2.01	4.47	1.79	3.4	0.21	0.579	1.37	4.4	1.74	3.54	2910	11.1 µM
COc1cc2nc(-c3ccc(-n4cncc4-c4ccc(N)cc4)cc3)sc2c(OC)c1OC	2.1 µM	> 100	3.6 µM	32.1	2.49	75.9	11700	31.3	–	–	6.26	> 100	3.81	> 100	–	–	3.84	17	2740	21.6 µM
COc1cc(OC)c(OC)cc1/C=C1\C=Cc2ccccc21	–	–	–	–	–	> 100	–	59.8	–	–	–	> 100	–	21.9	–	35.4	–	> 100	–	51.2 µM
CCOC(=O)C1=C(NC(C)(C)C)OCC1=O	–	> 100	–	> 100	–	–	–	> 100	–	–	–	> 100	–	> 100	–	> 100	–	> 100	–	> 100 µM
Cc1cccc2c1Oc1cc(Cl)ccc1C2NC(=O)CN(C)C (stereo unspecified)	–	51.8	–	> 100	–	> 100	–	> 100	–	–	–	41.4	–	> 100	–	> 100	–	–	–	–
Cc1c(C2Cc3ccccc3N2C(=O)/C=C\C(=O)O)c2ccccc2n1C (stereo unspecified)	–	76.2	–	> 100	–	72.9	–	48.5	–	–	–	49.3	–	94.1	–	41.5	–	40.6	–	46.4 µM
CC[C@@H](C)[C@H]([C@H](CC(=O)N1CCC[C@@H]1[C@@H](OC)[C@H](C)C(=O)N[C@H](Cc1ccccc1)c1nccs1)OC)N(C)C(=O)[C@H](NC(=O)[C@@H](C(C)C)N(C)C)C(C)C	–	–	1.2 µM and 0.588 µM	–	–	–	0.079	–	8.48e-05	> 100	–	44.1	–	0.00467	0.000425	–	–	0.00143	0.0657	0.000351 µM
CN1CCN(Cc2ccc(NC(=O)c3[nH]ncc3Nc3ncnc4sccc34)cc2)CC1	–	–	0.326 µM	3.92	0.425	3.53	–	–	1.23	5.56	0.351	> 100	–	–	0.315	> 100	0.242	> 100	–	–
Oc1ccc(/C=N/Nc2nc3ccccc3s2)c(O)c1	1.38 µM	12.1	0.381 µM	2.93	2.86	> 100	2140	8.93	–	–	3.68	53.8	2.78	17.2	3.47	> 100	1.72	> 100	1390	6.11 µM
